From publication PMC9504268, “Testing the Protective Effects of Sulfobutylether-Βeta-Cyclodextrin (SBECD) and Sugammadex against Chlorpromazine-Induced Acute Toxicity in SH-SY5Y Cell Line and in NMRI Mice” (Pharmaceutics, 2022)
Counter-ions that a name gives are not always drawn. Like-named read-outs stand apart in the source and are kept apart here.

Columns and labels:
[1] = system: mice; parameters: method as in PMID 5630492, PMID 13813939; settings: cited from earlier work
[2] = in vivo; format: in vivo, mice; settings: female, NMRI, mouse, in vivo, female NMRI mice, read-out: LD50 (based on 24 h mortality)
Description: (§1) Female NMRI mice weighing 25–35 g were used for the experiments. Animals were kept in the Laboratory Animal House of the Department of Pharmacology and Pharmacotherapy (University of Pécs) under standard pathogen-free conditions, and were provided with food pellets and water ad libitum. Mice were weighed then treated intraperitoneally (i.p.) with CPZ (120–300 mg/kg, 10 mL/kg, dissolved in physiological saline). Since CPZ typically provoked convulsions after 2 min, SBECD or SGD (500 or 2000 mg/kg, 10 mL/kg, dissolved in physiological saline) was administered i.v. immediately after the CPZ treatment. Control animals were treated with physiological saline (10 mL/kg i.p. and/or i.v.). Before and after the treatment, mice could consume feed and water ad libitum.
(§2) We decided to administer CPZ intraperitoneally because it leads to the more rapid appearance of the drug in the systemic circulation compared to the per os treatment. […] However, we applied CDs (SBECD or SGD) intravenously to produce immediately their high plasma concentrations as well as to avoid any potential local interactions of CDs with CPZ in the abdominal cavity.
(§3) In agreement with the 3Rs, the up-and-down method was used. One animal is treated at a time, starting around the LD50 value estimated. If the animal survived, then the following animal was treated with a higher dose. If the animal died, then the following animal was treated with a lower dose. This method provides a good estimation of LD50, while the number of animals sacrificed can be minimized. LD50 values were determined with the Probit Analysis (CI = 95%) as has been reported.

[3] = system: NMRI mice; assay: in vivo; format: in vivo; settings: typically
Description: as §1, §2, §3

[4] = system: SH-SY5Y cells; assay: SH-SY5Y cell viability based on total protein levels (fluorescamine); parameters: species or system human; settings: 24 h
Description: The SH-SY5Y cell line (neuroblastoma, human; ATCC: CRL-2266) was maintained in DMEM supplemented with 10% FBS, penicillin (100 U/mL) and streptomycin (100 µg/mL) and incubated at 37 °C in a humidified environment with 5% CO2. Cells were trypsinized then transferred to 96-well plates (10^4 cells/well). Next day, the medium has been replaced and cells were treated for 24 h with CPZ (0–100 μM), with CDs (0–1500 μM), or with the combinations of CPZ and CDs (final volume: 200 μL/well). After 24 h treatment of cells with CPZ and/or CDs, cells were washed three times with 200 μL of PBS (pH 7.4; also containing 0.18 g/L CaCl2, and 0.2 g/L MgCl2). […]
Since certain compounds can modify cellular ATP levels (which can disrupt the correlation of ATP concentration with the number of living cells), total protein measurements were also performed to confirm the ATP-based results. Total protein levels were determined with fluorescamine (Fluram) reagent, as has been previously reported. […] After homogenization, the fluorescence signals of these samples were determined with Enspire Multimode plate reader (PerkinElmer) employing 385 nm and 490 nm as excitation and emission wavelengths, respectively. Total protein concentrations were determined based on bovine serum albumin calibration curve. […]

[5] = system: SH-SY5Y cells; assay: SH-SY5Y cell viability based on cellular ATP levels (luciferin-luciferase); parameters: species or system human; settings: 24 h
Description: The SH-SY5Y cell line (neuroblastoma, human; ATCC: CRL-2266) was maintained in DMEM supplemented with 10% FBS, penicillin (100 U/mL) and streptomycin (100 µg/mL) and incubated at 37 °C in a humidified environment with 5% CO2. Cells were trypsinized then transferred to 96-well plates (10^4 cells/well). Next day, the medium has been replaced and cells were treated for 24 h with CPZ (0–100 μM), with CDs (0–1500 μM), or with the combinations of CPZ and CDs (final volume: 200 μL/well). After 24 h treatment of cells with CPZ and/or CDs, cells were washed three times with 200 μL of PBS (pH 7.4; also containing 0.18 g/L CaCl2, and 0.2 g/L MgCl2). Since cell death results in the detachment of cells from the plate, these floating cells and cell debris were removed from the well during these washing steps. Cells were lysed with 200 μL of borate buffer (0.2 M, pH 9.2) containing Triton X-100 (0.1%) detergent and ethylenediaminetetraacetic acid (EDTA, 20 mM), then the plate was placed in a shaker for 5 min. These lysates were applied in cellular ATP and total protein analyses.
The changes in cell viability were primarily evaluated based on ATP levels. ATP content is an indicator of metabolically active cells; therefore, cellular ATP concentration is a suitable parameter to assess the number of viable cells. ATP levels were quantified based on the luciferin-luciferase reaction adapted for microplate method, as has been described earlier. To quantify cellular ATP concentrations, a 10 μL/well volume of lysates was transferred into white 96-well optical plates (VWR, Debrecen, Hungary), after which 100 μL/well of the dissolved ATP reagent was added. Luminescence data of ATP standards and samples were measured with 5 s integration time, employing an Enspire Multimode reader (Perkin Elmer, Waltham, MA, US).
IC50 values were determined by sigmoidal fitting (Hill1) employing the Origin software (OriginLab Corporation, Northampton, MA, US). Statistical analyses were performed employing one-way ANOVA (with Tukey post hoc) test using the IBM SPSS Statistics software (Armonk, NY, US), where the level of significance was set as p < 0.01.

[6] = system: several different cell lines; parameters: method as in PMID 4801078, PMID 6896707, PMID 23689352; settings: cited from earlier work
[7] = parameters: method as in PMID 16553456; settings: in regard to cholesterol; cited from earlier work
[8] = system: HeLa cells; parameters: method as in PMID 36031178; settings: cited from earlier work
[9] = veratridine toxin–CD complexes; cited from earlier work
[10] = parameters: method as in PMID 32376444; settings: CPZ complex, cited from earlier work
[11] = parameters: method as in PMID 31726616, PMID 36031178; settings: complexes with zearalenone; cited from earlier work
[12] = Homo sapiens, SH-SY5Y cells, sigmoidal fitting

Compound: CN(C)CCCN1c2ccccc2Sc2ccc(Cl)cc21 [CPZ, Chlorpromazine hydrochloride]
- i.p. LD50 [1]: 150 to 220 mg/kg
- LD50 ([2]; 500 mg/kg, CPZ i.p. + 500 mg/kg SBECD i.v.): 206 mg/kg
- LD50 ([2]; 500 mg/kg, CPZ i.p. + 500 mg/kg SGD i.v.): 200 mg/kg
- LD50 ([2]; 2000 mg/kg, CPZ i.p. + 2000 mg/kg SBECD i.v.): 233 mg/kg
- LD50 ([2]; 2000 mg/kg, CPZ i.p. + 2000 mg/kg SGD i.v.): 172 mg/kg
- LD50 ([2]; CPZ i.p., control (physiological saline i.v.)): 194 mg/kg
- time after which CPZ provoked convulsions ([3]; CPZ i.p. 120–300 mg/kg): 2 min
- time in which CPZ caused its lethal impact ([3]; CPZ i.p., with a few exceptions): ≤ 2 h
- decrease in total protein levels ([4]; 20 μM CPZ): approximately 60%
- IC50 [4, 12]: 15.1 µM
- concentration showing close the maximal toxicity ([5]; 0–100 μM tested): 50 µM
- lowest concentration causing statistically significant (p < 0.01) decrease of ATP and total protein levels/well ([5]; 0–100 μM tested): 5 µM
- decrease in ATP levels ([5]; 20 μM CPZ): approximately 60%
- IC50 [5, 12]: 16 µM
- concentration range of significant toxic effects [6]: 10 to 60 µM

Compound: CC(O)COC[C@H]1O[C@@H]2O[C@H]3[C@H](O)[C@@H](O)[C@@H](O[C@H]4[C@H](O)[C@@H](O)[C@@H](O[C@H]5[C@H](O)[C@@H](O)[C@@H](O[C@H]6[C@H](O)[C@@H](O)[C@@H](O[C@H]7[C@H](O)[C@@H](O)[C@@H](O[C@H]8[C@H](O)[C@@H](O)[C@@H](O[C@H]1[C@H](O)[C@H]2O)O[C@@H]8COCC(C)O)O[C@@H]7COCC(C)O)O[C@@H]6COCC(C)O)O[C@@H]5COCC(C)O)O[C@@H]4COCC(C)O)O[C@@H]3COCC(C)O (stereo partly drawn) [HPBCD, hydroxypropyl-β-CD]
- binding constant [7]: 20000 L/mol

Compound: OC[C@H]1O[C@@H]2O[C@H]3[C@H](O)[C@@H](O)[C@@H](O[C@H]4[C@H](O)[C@@H](O)[C@@H](O[C@H]5[C@H](O)[C@@H](O)[C@@H](O[C@H]6[C@H](O)[C@@H](O)[C@@H](O[C@H]7[C@H](O)[C@@H](O)[C@@H](O[C@H]8[C@H](O)[C@@H](O)[C@@H](O[C@H]1[C@H](O)[C@H]2O)O[C@@H]8CO)O[C@@H]7CO)O[C@@H]6CO)O[C@@H]5CO)O[C@@H]4CO)O[C@@H]3CO [β-CD]
- effect on alternariol-induced cytotoxicity [8]: did not affect

Compound: OC[C@H]1O[C@@H]2O[C@H]3[C@H](O)[C@@H](O)[C@@H](O[C@H]4[C@H](O)[C@@H](O)[C@@H](O[C@H]5[C@H](O)[C@@H](O)[C@@H](O[C@H]6[C@H](O)[C@@H](O)[C@@H](O[C@H]7[C@H](O)[C@@H](O)[C@@H](O[C@H]8[C@H](O)[C@@H](O)[C@@H](O[C@H]9[C@H](O)[C@@H](O)[C@@H](O[C@H]1[C@H](O)[C@H]2O)O[C@@H]9CO)O[C@@H]8CO)O[C@@H]7CO)O[C@@H]6CO)O[C@@H]5CO)O[C@@H]4CO)O[C@@H]3CO [γ-CD]
- binding constant (K) [9]: approximately 10^4 L/mol
- binding constant (K), 1:1 complexes ([10]; 1:1): 500 L/mol
- binding constant (K), 1:2 complexes ([10]; 1:2): 6000 L/mol

Compound: dimethyl-β-CD
- binding constant [7]: 600000 L/mol

Compound: methyl-β-CD
- binding constant [11]: 10000 to 50000 L/mol

Compound: succinyl–methyl-β-CD
- binding constant [11]: 10000 to 50000 L/mol
